How the values were obtained:
Assay in all cases: relative viability (nuclei count vs DMSO), 5 days (fraction); higher = more cells survive
NCI-H2228 = test system: NCI-H2228
How it was run: (§1)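 Nuclei were stained with Hoechst during a one-step fixation (final 0.05% Triton X-100, 1% formaldehyde, 1 ug/ml Hoechst) carried out 5 days after dosing, then counted on 4× images. The cells, lung cancer lines in 1536-well plates, had been dosed by pin tool the day after seeding with one drug alone or a fixed anchor-drug dose plus five library-drug doses (not always all listed) in √10 steps. Relative viability is the nuclei count in treated wells divided by that in vehicle wells, and each value is the median of duplicate plates.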

HCC-78 = test system: HCC-78
How it was run: as §1

BEN = test system: BEN
How it was run: as §1

NCI-H838 = test system: NCI-H838
How it was run: as §1

NCI-H2009 = test system: NCI-H2009
How it was run: as §1

NCI-H520 = test system: NCI-H520
How it was run: as §1

NCI-H1734 = test system: NCI-H1734
How it was run: as §1

ABC-1 = test system: ABC-1
How it was run: as §1

HCC-366 = test system: HCC-366
How it was run: as §1

NCI-H1650 = test system: NCI-H1650
How it was run: as §1

NCI-H2405 = test system: NCI-H2405
How it was run: as §1

SW 1573 = test system: SW 1573
How it was run: as §1

NCI-H1755 = test system: NCI-H1755
How it was run: as §1

NCI-H2347 = test system: NCI-H2347
How it was run: as §1

LK-2 = test system: LK-2
How it was run: as §1

NCI-H1666 = test system: NCI-H1666
How it was run: as §1

LOU-NH91 = test system: LOU-NH91
How it was run: as §1

UMC-11 = test system: UMC-11
How it was run: as §1

201T = test system: 201T
How it was run: as §1

NCI-H727 = test system: NCI-H727
How it was run: as §1

NCI-H358 = test system: NCI-H358
How it was run: as §1

NCI-H1355 = test system: NCI-H1355
How it was run: as §1

O=C(O)CCCCC(CCSCc1ccccc1)SCc1ccccc1 (stereo not drawn) [CPI-613] + Cc1nc(Nc2ncc(C(=O)Nc3c(C)cccc3Cl)s2)cc(N2CCN(CCO)CC2)n1 [Dasatinib] (partner 0.075 µM)
relative viability (NCI-H2228; first compound 5 µM): 0.559 | relative viability (NCI-H2228; first compound 15.81 µM): 0.469 | relative viability (NCI-H2228; first compound 50 µM): 0.437 | relative viability (NCI-H2228; first compound 158.11 µM): 0.231 | relative viability (NCI-H2228; first compound 500 µM): 0.0527 | relative viability (HCC-78; first compound 5 µM): 0.358 | relative viability (HCC-78; first compound 15.81 µM): 0.272 | relative viability (HCC-78; first compound 50 µM): 0.408 | relative viability (HCC-78; first compound 158.11 µM): 0.339 | relative viability (HCC-78; first compound 500 µM): 0.342 | relative viability (BEN; first compound 5 µM): 0.341 | relative viability (BEN; first compound 15.81 µM): 0.293 | relative viability (BEN; first compound 50 µM): 0.293 | relative viability (BEN; first compound 158.11 µM): 0.267 | relative viability (BEN; first compound 500 µM): 0.279 | relative viability (NCI-H838; first compound 5 µM): 0.285 | relative viability (NCI-H838; first compound 15.81 µM): 0.237 | relative viability (NCI-H838; first compound 50 µM): 0.286 | relative viability (NCI-H838; first compound 158.11 µM): 0.261 | relative viability (NCI-H838; first compound 500 µM): 0.243 | relative viability (NCI-H2009; first compound 5 µM): 0.277 | relative viability (NCI-H2009; first compound 15.81 µM): 0.264 | relative viability (NCI-H2009; first compound 50 µM): 0.278 | relative viability (NCI-H2009; first compound 158.11 µM): 0.0869 | relative viability (NCI-H2009; first compound 500 µM): 0.029 | relative viability (NCI-H520; first compound 5 µM): 0.188 | relative viability (NCI-H520; first compound 15.81 µM): 0.17 | relative viability (NCI-H520; first compound 50 µM): 0.202 | relative viability (NCI-H520; first compound 158.11 µM): 0.168 | relative viability (NCI-H520; first compound 500 µM): 0.149 | relative viability (NCI-H1734; first compound 5 µM): 0.411 | relative viability (NCI-H1734; first compound 15.81 µM): 0.47 | relative viability (NCI-H1734; first compound 50 µM): 0.413 | relative viability (NCI-H1734; first compound 158.11 µM): 0.301 | relative viability (NCI-H1734; first compound 500 µM): 0.105 | relative viability (ABC-1; first compound 5 µM): 0.561 | relative viability (ABC-1; first compound 50 µM): 0.527 | relative viability (ABC-1; first compound 158.11 µM): 0.232 | relative viability (ABC-1; first compound 500 µM): 0.196 | relative viability (HCC-366; first compound 5 µM): 0.604 | relative viability (HCC-366; first compound 15.81 µM): 0.606 | relative viability (HCC-366; first compound 50 µM): 0.798 | relative viability (HCC-366; first compound 158.11 µM): 0.309 | relative viability (HCC-366; first compound 500 µM): 0.0101 | relative viability (NCI-H1650; first compound 5 µM): 0.353 | relative viability (NCI-H1650; first compound 15.81 µM): 0.285 | relative viability (NCI-H1650; first compound 50 µM): 0.312 | relative viability (NCI-H1650; first compound 158.11 µM): 0.082 | relative viability (NCI-H1650; first compound 500 µM): 0.0164 | relative viability (NCI-H2405; first compound 5 µM): 0.205 | relative viability (NCI-H2405; first compound 15.81 µM): 0.176 | relative viability (NCI-H2405; first compound 50 µM): 0.203 | relative viability (NCI-H2405; first compound 158.11 µM): 0.201 | relative viability (NCI-H2405; first compound 500 µM): 0.209 | relative viability (SW 1573; first compound 5 µM): 0.452 | relative viability (SW 1573; first compound 15.81 µM): 0.503 | relative viability (SW 1573; first compound 50 µM): 0.467 | relative viability (SW 1573; first compound 158.11 µM): 0.118 | relative viability (SW 1573; first compound 500 µM): 0.0385 | relative viability (NCI-H1755; first compound 5 µM): 0.406 | relative viability (NCI-H1755; first compound 15.81 µM): 0.41 | relative viability (NCI-H1755; first compound 50 µM): 0.446 | relative viability (NCI-H1755; first compound 158.11 µM): 0.464 | relative viability (NCI-H1755; first compound 500 µM): 0.225 | relative viability (NCI-H2347; first compound 5 µM): 0.295 | relative viability (NCI-H2347; first compound 15.81 µM): 0.308 | relative viability (NCI-H2347; first compound 50 µM): 0.227 | relative viability (NCI-H2347; first compound 158.11 µM): 0.315 | relative viability (NCI-H2347; first compound 500 µM): 0.327 | relative viability (LK-2; first compound 5 µM): 0.241 | relative viability (LK-2; first compound 15.81 µM): 0.279 | relative viability (LK-2; first compound 50 µM): 0.252 | relative viability (LK-2; first compound 158.11 µM): 0.254 | relative viability (LK-2; first compound 500 µM): 0.195 | relative viability (NCI-H1666; first compound 5 µM): 0.808 | relative viability (NCI-H1666; first compound 15.81 µM): 0.858 | relative viability (NCI-H1666; first compound 50 µM): 0.749 | relative viability (NCI-H1666; first compound 158.11 µM): 0.386 | relative viability (NCI-H1666; first compound 500 µM): 0.18 | relative viability (LOU-NH91; first compound 5 µM): 0.564 | relative viability (LOU-NH91; first compound 15.81 µM): 0.475 | relative viability (LOU-NH91; first compound 50 µM): 0.532 | relative viability (LOU-NH91; first compound 158.11 µM): 0.481 | relative viability (LOU-NH91; first compound 500 µM): 0.499 | relative viability (UMC-11; first compound 5 µM): 0.444 | relative viability (UMC-11; first compound 15.81 µM): 0.417 | relative viability (UMC-11; first compound 50 µM): 0.482 | relative viability (UMC-11; first compound 158.11 µM): 0.144 | relative viability (UMC-11; first compound 500 µM): 0.0883 | relative viability (201T; first compound 5 µM): 0.553 | relative viability (201T; first compound 15.81 µM): 0.527 | relative viability (201T; first compound 50 µM): 0.488 | relative viability (201T; first compound 158.11 µM): 0.352 | relative viability (201T; first compound 500 µM): 0.303 | relative viability (NCI-H727; first compound 5 µM): 0.305 | relative viability (NCI-H727; first compound 15.81 µM): 0.35 | relative viability (NCI-H727; first compound 50 µM): 0.329 | relative viability (NCI-H727; first compound 158.11 µM): 0.275 | relative viability (NCI-H727; first compound 500 µM): 0.138 | relative viability (NCI-H358; first compound 15.81 µM): 0.145 | relative viability (NCI-H358; first compound 50 µM): 0.146 | relative viability (NCI-H358; first compound 158.11 µM): 0.157 | relative viability (NCI-H358; first compound 500 µM): 0.0248 | relative viability (NCI-H1355; first compound 5 µM): 0.682 | relative viability (NCI-H1355; first compound 15.81 µM): 0.697 | relative viability (NCI-H1355; first compound 50 µM): 0.701 | relative viability (NCI-H1355; first compound 158.11 µM): 0.53 | relative viability (NCI-H1355; first compound 500 µM): 0.375

From the supplement of paper PMC10307832
